Assay results published in ChEMBL document CHEMBL1201862, “PubChem BioAssay data set” (2004).
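Interpolation was linear, between the two tested concentrations surrounding the appropriate level; five concentrations were tested over 48 hours in 96-well plates. GI50 = concentration required for 50% inhibition of growth.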 The source made the active and inactive calls. Rule as the data show it: active = GI50 up to about 1.1 µM and inactive = higher.

Columns and labels:
Test in all cases: growth of human tumour cells (NCI), 48 h
[1] = test system: OVCAR-8
[2] = test system: SF-295
[3] = test system: KM-20L2
[4] = test system: OVCAR-3
[5] = test system: TK-10
[6] = test system: NCI-H23
[7] = test system: HCC 2998
[8] = test system: OVCAR-5
[9] = test system: HL-60
[10] = test system: LXFL 529
[11] = test system: HOP-62
[12] = test system: SW-620
[13] = test system: SNB-19
[14] = test system: SF-268
[15] = test system: NCI-H460
[16] = test system: UACC-62
[17] = test system: A549

| SMILES | GI50 [1] | GI50 [2] | GI50 [3] | GI50 [4] | GI50 [5] | GI50 [6] | GI50 [7] | GI50 [8] | GI50 [9] | GI50 [10] | GI50 [11] | GI50 [12] | GI50 [13] | GI50 [14] | GI50 [15] | GI50 [16] | GI50 [17] |
| --- | --- | --- | --- | --- | --- | --- | --- | --- | --- | --- | --- | --- | --- | --- | --- | --- | --- |
| COc1ccc(O)c(C#N)c1C#N | > 100 µM (inactive) | > 100 µM (inactive) | > 100 µM (inactive) | > 100 µM (inactive) | > 100 µM (inactive) | > 100 µM (inactive) | > 100 µM (inactive) | > 100 µM (inactive) | > 100 µM (inactive) | > 100 µM (inactive) | > 100 µM (inactive) | > 100 µM (inactive) | > 100 µM (inactive) | > 100 µM (inactive) | > 100 µM (inactive) | > 100 µM (inactive) | > 100 µM (inactive) |
| CCOC(=O)N1C2C=C(C)C(ON2C(=O)c2ccccc2)C2C(C)C(=O)N21 (centres undefined) | > 100 µM (inactive) | > 100 µM (inactive) | > 100 µM (inactive) | > 100 µM (inactive) | > 100 µM (inactive) | > 100 µM (inactive) | > 100 µM (inactive) | > 100 µM (inactive) | > 100 µM (inactive) | > 100 µM (inactive) | > 100 µM (inactive) | > 100 µM (inactive) | > 100 µM (inactive) | > 100 µM (inactive) | > 100 µM (inactive) | > 100 µM (inactive) | > 100 µM (inactive) |
| Cc1nnc(N/N=C(/C(=O)C(C#N)c2ccccc2)C(C#N)c2ccccc2)n1N (centres undefined) | 3.62 µM (inactive) | 3.75 µM (inactive) | 49.3 µM (inactive) | 20 µM (inactive) | > 60.3 µM (inactive) | 12.9 µM (inactive) | 4.85 µM (inactive) | > 42.9 µM (inactive) | 17.9 µM (inactive) | 3.71 µM (inactive) | 50.7 µM (inactive) | 1.56 µM (inactive) | 56 µM (inactive) | 31 µM (inactive) | 1.01 µM (active) | 29.8 µM (inactive) | 20.2 µM (inactive) |
| O=c1c(O)c(-c2ccccc2)n(O)c2ccc(Cl)cc12 | 21.3 µM (inactive) | 29.4 µM (inactive) | 28.1 µM (inactive) | 32.3 µM (inactive) | 31.3 µM (inactive) | 34.7 µM (inactive) | 17.7 µM (inactive) | 38.9 µM (inactive) | 24.1 µM (inactive) | 23.8 µM (inactive) | 27.9 µM (inactive) | 16.6 µM (inactive) | 34.2 µM (inactive) | 27.4 µM (inactive) | 23.6 µM (inactive) | 24.5 µM (inactive) | 29.6 µM (inactive) |
| COc1ccc(Cc2nc3ccccc3s2)cc1OC | 16.9 µM (inactive) | 15.1 µM (inactive) | 19.3 µM (inactive) | 17.3 µM (inactive) | 36.2 µM (inactive) | 18.1 µM (inactive) | 21.1 µM (inactive) | 22.3 µM (inactive) | 18.4 µM (inactive) | 17.5 µM (inactive) | 29.6 µM (inactive) | 18.5 µM (inactive) | 32.5 µM (inactive) | 15.8 µM (inactive) | 19.7 µM (inactive) | 17.3 µM (inactive) | 23.5 µM (inactive) |
| COC(=O)C1CC/C(=N/c2ccc(C)cc2C)N1 (centres undefined) | > 100 µM (inactive) | > 100 µM (inactive) | > 100 µM (inactive) | > 100 µM (inactive) | > 100 µM (inactive) | > 100 µM (inactive) | > 100 µM (inactive) | > 100 µM (inactive) | > 100 µM (inactive) | > 100 µM (inactive) | > 100 µM (inactive) | > 100 µM (inactive) | > 100 µM (inactive) | > 100 µM (inactive) | > 100 µM (inactive) | > 100 µM (inactive) | > 100 µM (inactive) |
| CC1CC(C)C(C(O)CC2CC(=O)N(c3ccccc3)C(=O)C2)C(O)C1 (centres undefined) | > 100 µM (inactive) | > 100 µM (inactive) | > 100 µM (inactive) | > 100 µM (inactive) | > 100 µM (inactive) | > 100 µM (inactive) | > 100 µM (inactive) | > 100 µM (inactive) | > 100 µM (inactive) | > 100 µM (inactive) | > 100 µM (inactive) | > 100 µM (inactive) | > 100 µM (inactive) | > 100 µM (inactive) | > 100 µM (inactive) | > 100 µM (inactive) | > 100 µM (inactive) |
| O=[N+]([O-])c1cc([N+](=O)[O-])c(C(Cl)C(Cl)c2ccccc2)cc1C(Cl)C(Cl)c1ccccc1 (centres undefined) | 1.87 µM (inactive) | 2.15 µM (inactive) | 2.06 µM (inactive) | 2.2 µM (inactive) | 2.34 µM (inactive) | 1.65 µM (inactive) | 1.76 µM (inactive) | 2.14 µM (inactive) | 7.29 µM (inactive) | 1.54 µM (inactive) | 3.66 µM (inactive) | 1.61 µM (inactive) | 2.32 µM (inactive) | 1.77 µM (inactive) | 2.02 µM (inactive) | 1.84 µM (inactive) | 2.05 µM (inactive) |
| COc1ccc(SS(=O)(=O)c2ccc(OC)cc2)cc1 | 16.6 µM (inactive) | 19.5 µM (inactive) | 21.3 µM (inactive) | 18.2 µM (inactive) | 23.3 µM (inactive) | 26.1 µM (inactive) | 13.6 µM (inactive) | 30 µM (inactive) | 2.24 µM (inactive) | 17.7 µM (inactive) | 23.8 µM (inactive) | 3.69 µM (inactive) | 24.4 µM (inactive) | 17.4 µM (inactive) | 38.6 µM (inactive) | 20 µM (inactive) | 24.4 µM (inactive) |
| CC(C)NCC(O)COC(=O)c1cccs1 (centres undefined) | > 100 µM (inactive) | > 10 µM (inactive) | > 100 µM (inactive) | > 100 µM (inactive) | > 100 µM (inactive) | > 100 µM (inactive) | > 100 µM (inactive) | > 100 µM (inactive) | > 100 µM (inactive) | > 100 µM (inactive) | > 100 µM (inactive) | > 100 µM (inactive) | > 100 µM (inactive) | > 100 µM (inactive) | > 100 µM (inactive) | > 100 µM (inactive) | > 100 µM (inactive) |
| CCOC(=N)CC(=O)Nc1ccccc1CC | > 100 µM (inactive) | > 100 µM (inactive) | > 100 µM (inactive) | > 100 µM (inactive) | > 100 µM (inactive) | > 100 µM (inactive) | 98.9 µM (inactive) | > 100 µM (inactive) | > 100 µM (inactive) | > 100 µM (inactive) | > 100 µM (inactive) | > 100 µM (inactive) | > 100 µM (inactive) | > 100 µM (inactive) | > 100 µM (inactive) | > 100 µM (inactive) | > 100 µM (inactive) |
| CN1C(=O)C(=O)N2c3ccc(Cl)cc3C3(c4ccccc4)N=CC12O3 (centres undefined) | 3.13 µM (inactive) | 11.1 µM (inactive) | 8.83 µM (inactive) | 4.38 µM (inactive) | 5.45 µM (inactive) | 4.13 µM (inactive) | 14.7 µM (inactive) | 6.93 µM (inactive) | 2.25 µM (inactive) | 3 µM (inactive) | 15 µM (inactive) | 3.79 µM (inactive) | 12.9 µM (inactive) | 7.53 µM (inactive) | 6.03 µM (inactive) | 3.94 µM (inactive) | 10.8 µM (inactive) |
